Data reported in ChEMBL document CHEMBL5104173, “Combining monoamine oxidase B and semicarbazide-sensitive amine oxidase enzyme inhibition to address inflammatory disease” (Bioorg Med Chem Lett, 2022).
Activity calls are given as the source filed them. The calls are words filed in the database; no cut-off is given here.

Assays:
[1] = Cmax in Wistar rat at 3 mg/kg, po; assay type: ADME, organism-based; parameters: dose 3 mg/kg, route po; conditions: in vivo
[2] = Plasma protein binding in dog; assay type: ADME, cell-free, Canis lupus familiaris; conditions: read-out: PPB (converted)
Cytochrome P450 2D6 = Cytochrome P450 2D6 (Homo sapiens, UniProt P10635); experiment: Inhibition of CYP2D6 (unknown origin); assay type: ADME
[3] = Stability in human microsomes measured after 1 hr; assay type: ADME, Microsome; conditions: read-out: Stability
[4] = Plasma protein binding in human; assay type: ADME, cell-free; conditions: read-out: PPB (converted)
Mus musculus [5] = experiment: Antineuroinflammatory activity in PLP-induced autoimmune encephalomyelitis mouse model assessed as reduction in AUC of clinical score at 0.6 to 6 mg/kg/day, po administered once daily via oral gavage starting from day 13 post PLP sensibilization and measured on day 30; assay type: functional, organism-based; conditions: dose 0.6-6 mg/kg/day, time 17.0 day
[6] = Stability in dog microsomes measured after 1 hr; assay type: ADME, Canis lupus familiaris, Microsome; conditions: read-out: Stability
[7] = Plasma protein binding in rat; assay type: ADME, cell-free; conditions: read-out: PPB (converted)
Rattus norvegicus [8] = experiment: In vivo inhibition of MOA-A in Wistar rat brain at 3 mg/kg, po administered as single dose and measured upto 48 hrs; assay type: functional, organism-based
[9] = Tmax in Wistar rat at 3 mg/kg, po; assay type: ADME, organism-based; conditions: in vivo
Protein-lysine 6-oxidase = biological target: T1, Protein-lysine 6-oxidase (Bos taurus, UniProt P33072); experiment: Inhibition of bovine aorta LOX; assay type: tissue-based
T1 sequence (P33072 whole entry): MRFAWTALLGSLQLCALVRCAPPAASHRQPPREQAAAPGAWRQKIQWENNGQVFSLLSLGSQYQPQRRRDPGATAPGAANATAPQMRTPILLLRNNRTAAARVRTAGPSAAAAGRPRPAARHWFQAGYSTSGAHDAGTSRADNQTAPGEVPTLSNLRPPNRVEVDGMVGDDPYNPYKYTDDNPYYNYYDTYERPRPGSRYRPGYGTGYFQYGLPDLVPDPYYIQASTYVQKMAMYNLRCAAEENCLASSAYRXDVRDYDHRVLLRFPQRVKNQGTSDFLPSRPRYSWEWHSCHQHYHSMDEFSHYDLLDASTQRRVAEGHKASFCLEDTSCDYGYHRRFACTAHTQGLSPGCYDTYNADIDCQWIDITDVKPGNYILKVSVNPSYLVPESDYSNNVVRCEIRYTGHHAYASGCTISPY

[10] = AUC (0 to infinity) in Wistar rat at 3 mg/kg, po; assay type: ADME, organism-based; parameters: time infinity, dose 3 mg/kg, route po; conditions: in vivo
[11] = biological target: recombinant human DAO (diamine oxidase) (Homo sapiens, UniProt P19801); experiment: Inhibition of human recombinant DAO
Lysyl oxidase homolog 2 = biological target: T2, Lysyl oxidase homolog 2 (Homo sapiens, UniProt Q9Y4K0); experiment: Inhibition of recombinant human LOXL-2
T2 sequence (Q9Y4K0 whole entry): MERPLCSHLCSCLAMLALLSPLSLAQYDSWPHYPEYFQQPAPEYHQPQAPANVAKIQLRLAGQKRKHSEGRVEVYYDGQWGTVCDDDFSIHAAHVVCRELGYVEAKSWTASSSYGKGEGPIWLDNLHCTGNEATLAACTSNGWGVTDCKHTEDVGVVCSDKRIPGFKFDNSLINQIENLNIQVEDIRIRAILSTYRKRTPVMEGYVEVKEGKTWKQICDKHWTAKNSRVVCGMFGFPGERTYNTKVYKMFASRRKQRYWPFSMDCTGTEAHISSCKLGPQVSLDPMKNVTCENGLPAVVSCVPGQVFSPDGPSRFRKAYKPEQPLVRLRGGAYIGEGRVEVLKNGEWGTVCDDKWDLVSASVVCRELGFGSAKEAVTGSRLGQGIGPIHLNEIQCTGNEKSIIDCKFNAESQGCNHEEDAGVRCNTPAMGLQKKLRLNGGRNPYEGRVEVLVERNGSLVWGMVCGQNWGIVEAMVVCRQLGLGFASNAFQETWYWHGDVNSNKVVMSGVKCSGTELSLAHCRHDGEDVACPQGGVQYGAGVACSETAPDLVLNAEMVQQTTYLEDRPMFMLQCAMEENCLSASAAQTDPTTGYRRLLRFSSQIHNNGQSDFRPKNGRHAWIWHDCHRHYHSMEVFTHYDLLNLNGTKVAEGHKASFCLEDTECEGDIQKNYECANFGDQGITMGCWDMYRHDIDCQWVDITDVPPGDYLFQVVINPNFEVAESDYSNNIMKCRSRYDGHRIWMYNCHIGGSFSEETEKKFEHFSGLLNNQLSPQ

[12] = biological target: Lysine-specific histone demethylase 1A (Homo sapiens, UniProt O60341); experiment: Inhibition of LSD1 (unknown origin)
Mus musculus [13] = experiment: Antiinflammatory activity against mouse air pouch model of carrageenan-induced oedema assessed as reduction in neutrophil number in infiltrate at 0.6 mg/kg, po administered as single dose for 1 hr followed byb carrageenan administration; assay type: functional, organism-based
[14] = Stability in rat microsomes measured after 1 hr; assay type: ADME, Microsome; conditions: read-out: Stability
Cytochrome P450 3A4 = Cytochrome P450 3A4 (Homo sapiens, UniProt P08684); experiment: Inhibition of CYP3A4 (unknown origin); assay type: ADME
Cytochrome P450 1A2 = biological target: T3, Cytochrome P450 1A2 (Homo sapiens, UniProt P05177); experiment: Inhibition of CYP1A2 (unknown origin); assay type: ADME
T3 sequence (P05177 whole entry): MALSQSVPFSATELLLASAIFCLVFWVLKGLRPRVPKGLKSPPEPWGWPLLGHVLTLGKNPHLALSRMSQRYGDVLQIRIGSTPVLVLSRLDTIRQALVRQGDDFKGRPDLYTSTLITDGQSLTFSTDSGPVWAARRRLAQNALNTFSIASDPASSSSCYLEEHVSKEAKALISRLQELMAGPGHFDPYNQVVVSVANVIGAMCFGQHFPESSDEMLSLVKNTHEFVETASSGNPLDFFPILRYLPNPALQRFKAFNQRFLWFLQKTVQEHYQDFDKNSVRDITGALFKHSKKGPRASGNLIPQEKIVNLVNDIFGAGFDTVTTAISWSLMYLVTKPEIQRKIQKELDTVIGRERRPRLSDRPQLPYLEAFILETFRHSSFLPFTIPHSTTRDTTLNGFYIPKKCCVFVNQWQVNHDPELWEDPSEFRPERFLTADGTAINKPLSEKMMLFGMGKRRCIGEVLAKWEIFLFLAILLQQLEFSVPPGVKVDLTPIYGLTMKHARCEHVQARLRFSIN

Mus musculus [15] = experiment: Antiinflammatory activity against mouse air pouch model of carrageenan-induced oedema assessed as reduction in total inflammatory cell volume into air pouch at 0.6 to 6 mg/kg, po administered as single dose for 1 hr followed byb carrageenan administration; assay type: functional, organism-based; conditions: dose 0.6-6 mg/kg
[16] = biological target: T4, Amine oxidase [flavin-containing] A (Homo sapiens, UniProt P21397); experiment: Inhibition of human recombinant MAO-A
T4 sequence (P21397 whole entry): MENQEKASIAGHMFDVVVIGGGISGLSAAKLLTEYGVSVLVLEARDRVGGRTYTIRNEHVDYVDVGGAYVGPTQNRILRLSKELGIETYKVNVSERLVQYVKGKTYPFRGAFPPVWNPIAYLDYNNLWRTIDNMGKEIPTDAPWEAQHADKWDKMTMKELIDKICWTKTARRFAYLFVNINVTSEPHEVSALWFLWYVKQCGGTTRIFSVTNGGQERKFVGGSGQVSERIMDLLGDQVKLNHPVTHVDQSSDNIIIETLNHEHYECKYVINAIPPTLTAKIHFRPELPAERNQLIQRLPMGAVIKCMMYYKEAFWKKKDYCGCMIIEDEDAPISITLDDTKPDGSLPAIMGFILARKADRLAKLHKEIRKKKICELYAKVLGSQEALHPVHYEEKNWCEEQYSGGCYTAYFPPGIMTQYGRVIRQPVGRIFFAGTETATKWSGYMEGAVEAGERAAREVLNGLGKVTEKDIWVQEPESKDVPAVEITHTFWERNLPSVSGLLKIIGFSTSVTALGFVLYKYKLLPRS

Rattus norvegicus [17] = experiment: In vivo inhibition of MOA-B in Wistar rat brain at 0.6 mg/kg, po administered as single dose and measured upto 48 hrs; assay type: functional, organism-based
[18] = biological target: T5, Amine oxidase [flavin-containing] B (Mus musculus, UniProt Q8BW75); experiment: Inhibition of mouse muscle MAO-B; assay type: tissue-based, Muscle tissue
T5 sequence (Q8BW75 whole entry): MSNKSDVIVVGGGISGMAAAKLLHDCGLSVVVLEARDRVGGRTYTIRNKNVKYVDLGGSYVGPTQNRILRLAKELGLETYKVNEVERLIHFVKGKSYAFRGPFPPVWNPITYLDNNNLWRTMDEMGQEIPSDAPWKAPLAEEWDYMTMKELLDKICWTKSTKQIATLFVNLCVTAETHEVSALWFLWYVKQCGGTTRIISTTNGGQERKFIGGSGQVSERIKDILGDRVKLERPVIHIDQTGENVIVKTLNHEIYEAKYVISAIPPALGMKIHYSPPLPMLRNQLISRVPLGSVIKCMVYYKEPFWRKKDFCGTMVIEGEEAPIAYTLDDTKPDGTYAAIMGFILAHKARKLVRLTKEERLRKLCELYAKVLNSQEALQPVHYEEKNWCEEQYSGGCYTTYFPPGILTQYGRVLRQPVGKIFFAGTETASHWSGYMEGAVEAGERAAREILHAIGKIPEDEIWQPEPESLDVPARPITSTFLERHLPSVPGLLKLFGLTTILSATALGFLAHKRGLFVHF

Cytochrome P450 2C9 = Cytochrome P450 2C9 (Homo sapiens, UniProt P11712); experiment: Inhibition of CYP2C9 (unknown origin); assay type: ADME
[19] = Stability in human hepatocytes assessed as parent compound remaining measured after 1 hr; assay type: ADME, cell-based, Hepatocyte; conditions: read-out: Stability
Rattus norvegicus [20] = experiment: In vivo inhibition of SSAO in Wistar rat adipose tissue at 0.6 mg/kg, po administered as single dose and measured upto 48 hrs; assay type: functional, organism-based
Cytochrome P450 2C19 = Cytochrome P450 2C19 (Homo sapiens, UniProt P33261); experiment: Inhibition of CYP2C19 (unknown origin)
[21] = biological target: T6, Amine oxidase [flavin-containing] B (Homo sapiens, UniProt P27338); experiment: Inhibition of human recombinant MAO-B
T6 sequence (P27338 whole entry): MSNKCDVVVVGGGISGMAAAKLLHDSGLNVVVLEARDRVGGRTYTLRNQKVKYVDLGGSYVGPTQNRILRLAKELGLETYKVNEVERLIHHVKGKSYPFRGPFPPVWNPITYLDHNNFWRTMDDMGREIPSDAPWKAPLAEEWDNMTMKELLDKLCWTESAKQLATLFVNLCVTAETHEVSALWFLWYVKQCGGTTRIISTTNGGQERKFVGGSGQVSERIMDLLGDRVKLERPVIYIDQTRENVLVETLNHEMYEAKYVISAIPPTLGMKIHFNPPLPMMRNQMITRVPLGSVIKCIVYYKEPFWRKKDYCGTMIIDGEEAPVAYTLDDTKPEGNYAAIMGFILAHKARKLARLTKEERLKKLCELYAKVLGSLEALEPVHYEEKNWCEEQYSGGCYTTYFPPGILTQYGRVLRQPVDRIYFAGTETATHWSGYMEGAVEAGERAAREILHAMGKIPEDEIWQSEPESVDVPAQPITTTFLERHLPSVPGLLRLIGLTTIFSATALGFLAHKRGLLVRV

[22] = Inhibition of calcium channel (unknown origin) at 10 uM; assay type: toxicity; conditions: human
[23] = Inhibition of potassium channel (unknown origin) at 10 uM; assay type: toxicity; conditions: human
[24] = Inhibition of sodium channel (unknown origin) at 10 uM; assay type: toxicity; conditions: human
[25] = Permeability in MDCK-MDR1 cells; assay type: ADME, cell-based, Canis lupus familiaris; conditions: dog

Sequence of Cytochrome P450 3A4 (P08684 whole entry): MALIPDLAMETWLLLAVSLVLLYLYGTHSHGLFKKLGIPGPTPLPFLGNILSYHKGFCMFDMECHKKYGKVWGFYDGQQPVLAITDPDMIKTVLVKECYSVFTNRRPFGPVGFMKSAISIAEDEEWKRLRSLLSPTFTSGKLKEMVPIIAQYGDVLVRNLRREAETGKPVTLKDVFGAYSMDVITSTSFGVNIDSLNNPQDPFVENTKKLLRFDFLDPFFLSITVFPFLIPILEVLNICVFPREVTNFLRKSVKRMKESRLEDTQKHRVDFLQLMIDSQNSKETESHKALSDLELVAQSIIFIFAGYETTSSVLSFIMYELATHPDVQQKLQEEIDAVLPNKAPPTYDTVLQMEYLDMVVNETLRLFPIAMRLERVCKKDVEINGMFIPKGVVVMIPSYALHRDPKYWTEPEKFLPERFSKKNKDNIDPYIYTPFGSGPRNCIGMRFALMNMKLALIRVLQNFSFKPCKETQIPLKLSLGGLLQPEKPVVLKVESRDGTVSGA
Sequence of Cytochrome P450 2C9 (P11712 whole entry): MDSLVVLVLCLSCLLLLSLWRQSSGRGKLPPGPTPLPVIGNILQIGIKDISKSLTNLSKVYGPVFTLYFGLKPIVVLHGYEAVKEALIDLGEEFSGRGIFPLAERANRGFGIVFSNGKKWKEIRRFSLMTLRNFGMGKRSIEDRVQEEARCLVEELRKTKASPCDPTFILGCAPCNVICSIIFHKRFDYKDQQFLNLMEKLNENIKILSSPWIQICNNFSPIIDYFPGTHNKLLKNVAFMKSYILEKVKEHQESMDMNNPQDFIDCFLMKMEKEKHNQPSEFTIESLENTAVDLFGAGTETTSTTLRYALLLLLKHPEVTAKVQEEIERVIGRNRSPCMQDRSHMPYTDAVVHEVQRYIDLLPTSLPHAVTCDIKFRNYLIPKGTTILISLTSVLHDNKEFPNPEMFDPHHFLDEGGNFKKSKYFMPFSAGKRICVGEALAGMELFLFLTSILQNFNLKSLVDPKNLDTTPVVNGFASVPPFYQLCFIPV
Sequence of Cytochrome P450 2D6 (P10635 whole entry): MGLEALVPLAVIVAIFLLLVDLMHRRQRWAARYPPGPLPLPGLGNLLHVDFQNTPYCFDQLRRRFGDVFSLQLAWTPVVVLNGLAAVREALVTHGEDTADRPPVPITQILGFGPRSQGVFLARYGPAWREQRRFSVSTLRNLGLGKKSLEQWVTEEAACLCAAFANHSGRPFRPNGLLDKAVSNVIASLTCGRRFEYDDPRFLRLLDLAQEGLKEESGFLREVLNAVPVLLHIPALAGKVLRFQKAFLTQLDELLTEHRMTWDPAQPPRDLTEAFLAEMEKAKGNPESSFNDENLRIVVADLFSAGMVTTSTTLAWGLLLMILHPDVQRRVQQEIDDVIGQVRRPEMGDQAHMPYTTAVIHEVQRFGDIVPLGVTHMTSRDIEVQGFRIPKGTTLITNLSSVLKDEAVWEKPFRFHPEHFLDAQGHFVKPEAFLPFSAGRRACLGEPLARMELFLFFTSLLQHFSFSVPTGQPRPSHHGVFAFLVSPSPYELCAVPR
Sequence of Cytochrome P450 2C19 (P33261 whole entry): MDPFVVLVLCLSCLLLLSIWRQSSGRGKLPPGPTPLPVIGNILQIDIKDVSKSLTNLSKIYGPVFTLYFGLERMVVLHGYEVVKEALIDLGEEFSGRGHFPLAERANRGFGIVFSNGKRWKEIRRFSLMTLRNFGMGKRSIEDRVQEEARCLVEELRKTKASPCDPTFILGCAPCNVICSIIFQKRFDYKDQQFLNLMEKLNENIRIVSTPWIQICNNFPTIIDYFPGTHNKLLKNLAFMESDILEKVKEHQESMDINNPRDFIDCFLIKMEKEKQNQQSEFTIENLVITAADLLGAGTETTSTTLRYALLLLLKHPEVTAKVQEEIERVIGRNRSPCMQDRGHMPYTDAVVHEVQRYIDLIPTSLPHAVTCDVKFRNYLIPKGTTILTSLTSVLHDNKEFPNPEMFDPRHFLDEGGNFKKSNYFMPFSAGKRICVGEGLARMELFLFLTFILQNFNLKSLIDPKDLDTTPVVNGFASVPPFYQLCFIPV

Cl.NC/C(=C\F)[C@H]1Cc2ccccc2O1
Cmax [1]: 199 ng/mL
fraction unbound [2]: 0.42
IC50 (Cytochrome P450 2D6): > 10000 nM
remaining at 1 h [3]: 84%
fraction unbound [4]: 0.24
Activity (Mus musculus [5]): Active
remaining at 1 h [6]: 92%
fraction unbound [7]: 0.51
inhibition (Rattus norvegicus [8]): Active
Tmax [9]: 20 min
IC50 (Protein-lysine 6-oxidase): > 30000 nM
AUC(0-inf) [10]: 265 ng·h/mL
IC50 [11]: > 30000 nM
IC50 (Lysyl oxidase homolog 2): > 30000 nM
IC50 [12]: > 30000 nM
Activity (Mus musculus [13]): Active
remaining at 1 h [14]: 67%
IC50 (Cytochrome P450 3A4): > 10000 nM
IC50 (Cytochrome P450 1A2): > 10000 nM
Activity (Mus musculus [15]): Active
IC50 [16]: 2400 nM
inhibition (Rattus norvegicus [17]): Active
IC50 [18]: 0.4 nM
IC50 (Cytochrome P450 2C9): > 10000 nM
remaining at 1 h [19]: > 95%
inhibition (Rattus norvegicus [20]): Active
IC50 (Cytochrome P450 2C19): > 10000 nM

NC/C(=C\F)COc1ccccc1
IC50 [11]: > 30000 nM
IC50 [21]: 13 nM
IC50 [16]: 4000 nM

NC/C(=C/F)CCc1ccc(F)cc1 [MOFEGILINE]
IC50 [11]: > 30000 nM
IC50 [21]: 2 nM
IC50 [16]: 750 nM

NC/C(=C/F)[C@H]1Cc2ccccc2O1
IC50 [11]: > 30000 nM
IC50 [16]: 6800 nM

NC/C(=C/F)[C@@H]1Cc2ccccc2O1
IC50 [16]: 100 nM

Cl.NCC(=CF)C1Cc2ccccc2O1 (mixture of isomers)
inhibition (INH) [22]: Active
IC50 [11]: > 30000 nM
IC50 [16]: 460 nM
inhibition (INH) [23]: Active
inhibition (INH) [24]: Active

Cc1ccccc1OC/C(=C/F)CN
IC50 [11]: > 30000 nM
IC50 [21]: 3 nM
IC50 [16]: 160 nM

Cl.NC/C(=C\F)[C@@H]1Cc2ccccc2O1
IC50 [11]: > 30000 nM
IC50 [16]: 750 nM
permeability [25]: Permeable

NCC(=CF)COc1ccc(F)cc1 (mixture of isomers)
IC50 [11]: 780 nM
IC50 [21]: 4 nM
IC50 [16]: 14000 nM

NCC(=CF)COc1ccccc1 (mixture of isomers)
IC50 [11]: 1600 nM
IC50 [21]: 9 nM
IC50 [16]: 2500 nM
